The values that follow come from publication PMC11944621, “Synthesis, Molecular Simulation, DFT, and Kinetic Study of Imidazotriazole-Based Thiazolidinone as Dual Inhibitor of Acetylcholinesterase and Butyrylcholinesterase Enzymes” (Pharmaceuticals, 2025).

Read-outs that look alike come from different tables or passages of the source.

The target of test [1] is T1, AChE (Homo sapiens, UniProt P22303). The test can be described thus: biochemical. The note with it: in vitro, triplicate; read-out: AchE IC50 ± SEM. As for the experimental part: (§1) With some modifications, inhibitory potential against AChE and BuChE was investigated according to the reported protocol. […] Added test compound (well-1) with volume of 10 µL and a concentration of 0.5 mM followed by the addition of an enzyme of 10 µL (0.005 unit well-1). Pre-incubation of substances at 37 °C for 10 min was achieved. Reaction was started by adding 10 µL of 0.5 mM well-1 substrate (acetylthiocholine iodide/ butyrylthiochloine chloride) followed by addition of 10 µL DTNB (0.5 mM well-1). […] All experiments were performed with their respective controls in triplicate. […] The % inhibition was computed using the following equation:Inhibition (%) = Control − Test/control × 100 […]
T1 sequence (P22303 32-614): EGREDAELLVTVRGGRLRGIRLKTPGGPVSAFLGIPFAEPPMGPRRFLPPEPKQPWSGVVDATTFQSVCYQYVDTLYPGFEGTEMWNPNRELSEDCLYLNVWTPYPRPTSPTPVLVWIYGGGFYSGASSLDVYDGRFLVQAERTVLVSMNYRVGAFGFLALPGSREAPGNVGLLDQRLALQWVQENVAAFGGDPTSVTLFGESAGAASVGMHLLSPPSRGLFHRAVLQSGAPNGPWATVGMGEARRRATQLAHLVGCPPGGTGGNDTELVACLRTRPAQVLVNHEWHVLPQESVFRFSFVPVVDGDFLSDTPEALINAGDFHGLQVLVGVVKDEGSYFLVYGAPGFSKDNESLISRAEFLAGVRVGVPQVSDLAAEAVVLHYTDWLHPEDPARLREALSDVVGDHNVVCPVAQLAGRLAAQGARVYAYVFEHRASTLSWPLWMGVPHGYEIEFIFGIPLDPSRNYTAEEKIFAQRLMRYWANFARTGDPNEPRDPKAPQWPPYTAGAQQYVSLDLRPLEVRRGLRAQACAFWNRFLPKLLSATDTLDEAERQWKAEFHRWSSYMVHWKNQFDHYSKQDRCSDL
(§2) S.2 AChE and BuChE assay protocols
(§3) With a little bit modification, inhibitory potential against AChE and BuChE was investigated according to the reported protocol. The total volume of the reaction mixture was kept at 100 µL, […]
(§4) compound (well-1) with volume of 10µL and a concentration of 0.5mM followed by the addition of an enzyme of 10 µL (0.005 unit well-1). Pre-incubation of substances at 37 °C for 10 min was achieved. Reaction was started by addition of 10µL of 0.5mM well-1 substrate (acetylthiocholine iodide/ butyrylthiochloine chloride) followed by addition of 10µL DTNB (0.5mM well-1).
(§5) Synergy HT, BioTek, US. All experiments were done with their respective controls in triplicate.
(§6) The % inhibition was computed using the following equation
(§7) Inhibition (%) = Control – Test/control x 100
(§8) Control EZ-Fit Enzyme kinetics software (Perrella Scientific Inc. Amherst, USA) was used for the calculation of IC50 values. […]

The target of test [2] is T2, BChE (Homo sapiens, UniProt P06276). The experiment in a line: biochemical. The note with it: in vitro, triplicate; read-out: BChE IC50 ± SEM. The procedure: as §1, §2, §3, §4, §5, §6, §7, §8
T2 sequence (P06276 29-602): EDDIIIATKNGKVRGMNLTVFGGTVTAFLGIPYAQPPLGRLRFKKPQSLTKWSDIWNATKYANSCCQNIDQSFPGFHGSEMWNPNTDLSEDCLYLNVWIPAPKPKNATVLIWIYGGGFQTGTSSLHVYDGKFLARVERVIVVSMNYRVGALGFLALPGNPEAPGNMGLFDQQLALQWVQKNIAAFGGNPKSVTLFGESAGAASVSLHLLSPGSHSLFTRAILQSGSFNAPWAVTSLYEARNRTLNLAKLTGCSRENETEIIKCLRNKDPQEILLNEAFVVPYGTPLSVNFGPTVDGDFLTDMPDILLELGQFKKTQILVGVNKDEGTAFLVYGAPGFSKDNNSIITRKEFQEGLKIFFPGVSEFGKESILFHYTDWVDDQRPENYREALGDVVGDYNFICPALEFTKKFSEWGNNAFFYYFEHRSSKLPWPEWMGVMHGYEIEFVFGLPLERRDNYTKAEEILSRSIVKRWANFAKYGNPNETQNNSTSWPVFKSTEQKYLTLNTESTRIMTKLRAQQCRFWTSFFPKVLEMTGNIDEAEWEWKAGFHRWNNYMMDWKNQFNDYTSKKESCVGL
The target in test [3] is T1, AChE. The note with it: previously reported thiazolidinone analog; read-out: IC50 against AChE; cited from earlier work.
For test [4], the target named is T2, BChE. The note with it: cited from earlier work.
A further test concerns enzyme. The test can be described thus: Enzyme kinetics (mode of inhibition). The test is classed as biochemical. The source says:
This is an in vitro approach, which measures the initial inhibition rate with the change in the inhibitor concentration.

In general, IC50 refers to the concentration at which inhibition is half-maximal. Regarding `COc1cc(-c2nnc3[nH]ccn23)ccc1N1C(=O)CSC1c1ccc(F)cc1O` (stereo not shown) [Analog 11], the values for the IC50 on AChE [1] and on BChE [2] were 8.3 ± 0.2 µM and 8.6 ± 0.3 µM, respectively.
As for `O=C1/C(=C\c2ccc(N3CCCC3)cc2)S/C(=N/N2CCOCC2)N1c1ccccc1` [(E)-2-(morpholinoimino)-3-phenyl-5-((E)-4-(pyrrolidin-1-yl)benzylidene)thiazolidin-4-one], the IC50 on AChE [3] is 17.4 ± 0.22 µM; on BChE [4] (previously reported thiazolidinone analog, read-out: IC50 against BChE), 24.4 ± 0.51 µM.
Regarding `COc1cc(-c2nnc3[nH]ccn23)ccc1N1C(=O)CSC1c1ccc(F)cc1F` (stereo not shown) [Analog 3], the IC50 amounted to 8.1 ± 0.4 µM at AChE [1] and 8.5 ± 0.3 µM on BChE [2].
Take `COc1cc(-c2nnc3[nH]ccn23)ccc1N1C(=O)CSC1c1ccc(C(F)(F)F)cc1` (stereo not shown) [Analog 10]: the IC50 at AChE [1] is 6.7 ± 0.2 µM; on BChE [2], 7.1 ± 0.1 µM. Further, in the test on enzyme, the “Mode of inhibition (enzyme kinetics)” value is “competitive inhibitor”.
For `Cc1ccc(-c2cn(Cc3ccc4ccccc4c3)nn2)cc1C(=O)NCCN1CCOCC1` [2-methyl-N-(2-morpholinoethyl)-5-(1-(naphthalen-2-ylmethyl)-1H-1,2,3-triazol-4-yl)benzamide], the IC50 at BChE [4] (read-out: IC50 for BChE, previously reported triazole analog) was 90.76 ± 0.21 µM.
